One assay addresses JAK2 (Homo sapiens (Human), UniProt O60674). Put plainly: Jak Biochemical HTRF Assay, JAK2. Particulars: HTRF biochemical assay, GST-tagged catalytic domain; top concentration tested […]. The source says:
(§1) Jak Biochemical HTRF Assay Protocol
(§2) Subsequent reagent additions employed an Agilent Bravo.
On the technique in general: Time-resolved FRET reads energy transfer from a long-lived donor to a nearby acceptor.

The next assay has as its target JAK1 (Homo sapiens (Human), UniProt P23458). Put plainly: Jak Biochemical HTRF Assay, JAK1. Particulars: HTRF biochemical assay, GST-tagged catalytic domain; top concentration tested […]; read-out: JAK1 IC50.
Excerpt: as §1, §2

Data on 27 molecules can be found in patent US9328099B2, “Cyanomethylpyrazole carboxamides as janus kinase inhibitors” (Merck Sharp & Dohme Corp., priority 2011, dated 2016).

Chain of JAK2 (O60674 849-1124): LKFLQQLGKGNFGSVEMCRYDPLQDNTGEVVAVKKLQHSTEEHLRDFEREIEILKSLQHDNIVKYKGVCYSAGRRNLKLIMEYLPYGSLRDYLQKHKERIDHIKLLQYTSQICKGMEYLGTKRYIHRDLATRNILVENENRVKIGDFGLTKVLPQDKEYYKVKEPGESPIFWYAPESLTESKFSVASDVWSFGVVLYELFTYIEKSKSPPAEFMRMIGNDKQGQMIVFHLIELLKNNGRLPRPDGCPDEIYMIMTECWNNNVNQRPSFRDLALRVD
Chain of JAK1 (P23458 875-1153): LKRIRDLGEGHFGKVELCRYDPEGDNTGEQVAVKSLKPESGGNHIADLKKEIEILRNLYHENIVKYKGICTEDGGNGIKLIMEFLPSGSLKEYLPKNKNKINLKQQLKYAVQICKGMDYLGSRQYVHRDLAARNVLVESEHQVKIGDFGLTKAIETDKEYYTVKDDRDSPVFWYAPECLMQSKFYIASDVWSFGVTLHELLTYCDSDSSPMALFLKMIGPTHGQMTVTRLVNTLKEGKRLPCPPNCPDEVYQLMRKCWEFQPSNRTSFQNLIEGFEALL

As a reminder, the IC50 is the midpoint of a concentration-inhibition curve. Consider `CCn1ccnc1CN1CCC(CC#N)(n2cc(C(N)=O)c(Nc3ccnc(F)c3)n2)CC1` [Example 22-1, 1-(4-(Cyanomethyl)-1-((1-ethyl-1H-imidazol-2-yl)methyl)piperidin-4-yl)-3-((2-fluoropyridin-4-yl)amino)-1H-pyrazole-4-carboxamide], for which the results for the IC50 against JAK2 and on JAK1 were 447 nM and 30 nM, respectively.
As to `CN(CCS(C)(=O)=O)C1CCC(CC#N)(n2cc(C(N)=O)c(Nc3ccc(F)cc3)n2)CC1` (stereo not drawn) [Example 40-72, Cis or trans 1-[1-(cyanomethyl)-4-{methyl[2-(methylsulfonyl)ethyl]amino}cyclohexyl]-3-[(4-fluorophenyl)amino]-1H-pyrazole-4-carboxamide], the figures for the IC50 on JAK2 and on JAK1 were 37 nM and 1 nM, respectively.
As for `Cc1ccc(C)c(NC(=O)N2CC(CC#N)(n3cc(C(N)=O)c(Nc4ccccc4)n3)C2)c1` [Example 38-16, 1-{3-(cyanomethyl)-1-[(2,5-dimethylphenyl)carbamoyl]azetidin-3-yl}-3-(phenylamino)-1H-pyrazole-4-carboxamide], the IC50 was 111 nM against JAK2 and 7 nM at JAK1.
For `N#CCC1(n2cc(C(N)=O)c(Nc3ccc(F)cc3)n2)CCC2(CC1)OCCO2` [Example 6-6, 1-[8-(cyanomethyl)-1,4-dioxaspiro[4.5]dec-8-yl]-3-[(4-fluorophenyl)amino]-1H-pyrazole-4-carboxamide], in that order: 48 nM and 7 nM.
Regarding `CC(C)(O)CC(=O)N1CCC(CC#N)(n2cc(C(N)=O)c(Nc3ccnc(F)c3)n2)CC1` [Example 34-50, 1-[4-(cyanomethyl)-1-(3-hydroxy-3-methylbutanoyl)piperidin-4-yl]-3-[(2-fluoropyridin-4-yl)amino]-1H pyrazole-4-carboxamide], the figures for the IC50 against JAK2 and at JAK1 were 8 nM and 0.2 nM, respectively.
`N#CC[C@]1(n2cc(C(N)=O)c(Nc3ccc(F)cc3)n2)CC[C@@H](NCc2ccccc2)CC1` [Example 40-108, 1-[cis-4-(benzylamino)-1-(cyanomethyl)cyclohexyl]-3-[(4-fluorophenyl)amino]-1H-pyrazole-4-carboxamide]: the IC50 against JAK2 was determined as 2 nM; on JAK1 it was 0.09 nM.
For `N#CCC1(n2cc(C(N)=O)c(Nc3ccc(S(=O)(=O)C(F)F)cc3)n2)CCC(NC2CCOCC2)CC1` (stereo not drawn) [Example 40-26, Cis or trans 1-[1-(cyanomethyl)-4-(tetrahydro-2H-pyran-4-ylamino)cyclohexyl]-3-({4-[(difluoromethyl)sulfonyl]phenyl}amino)-1H-pyrazole-4-carboxamide], in that order: 5 nM and 0.08 nM.
For the molecule `N#CCC1(n2cc(C(N)=O)c(Nc3ccnc(F)c3)n2)CCC(Nc2cccc(F)c2)CC1` (stereo not drawn) [Example 40-64, Cis or trans 1-{1-(cyanomethyl)-4-[(3-fluorophenyl)amino]cyclohexyl}-3-[(2-fluoropyridin-4-yl)amino]-1H-pyrazole-4-carboxamide], the IC50 amounted to 2 nM against JAK2 and 0.05 nM at JAK1.
`N#CCC1(n2cc(C(N)=O)c(Nc3ccc(F)cc3)n2)CCN(c2cccnc2F)CC1` [Example 3-51, 1-[4-(cyanomethyl)-1-(2-fluoropyridin-3-yl)piperidin-4-yl]-3-[(4-fluorophenyl)amino]-1H-pyrazole-4-carboxamide]: the results for the IC50 against JAK2 and at JAK1 were 0.6 nM and 0.06 nM, respectively.
`N#CCC1(n2cc(C(N)=O)c(Nc3ccccc3)n2)CCN(C(=O)OCc2cccc(F)c2)CC1` [Example 30-32, 3-fluorobenzyl 4-[4-carbamoyl-3-(phenylamino)-1H-pyrazol-1-yl]-4-(cyanomethyl)piperidine-1-carboxylate]: the figures for the IC50 against JAK2 and at JAK1 were 88 nM and 4 nM, respectively.
For `Cc1ccc(Cl)cc1NC(=O)N1CC(CC#N)(n2cc(C(N)=O)c(Nc3ccccc3)n2)C1` [Example 38-17, 1-{1-[(5-chloro-2-methylphenyl)carbamoyl]-3-(cyanomethyl)azetidin-3-yl}-3-(phenylamino)-1H-pyrazole-4-carboxamide], the IC50 amounted to 149 nM against JAK2 and 11 nM on JAK1.
For `CN1CCC(COC(=O)N2CCC(CC#N)(n3cc(C(N)=O)c(Nc4ccccc4)n3)CC2)CC1` [Example 30-44, (1-methylpiperidin-4-yl)methyl 4-[4-carbamoyl-3-(phenylamino)-1H-pyrazol-1-yl]-4-(cyanomethyl)piperidine-1-carboxylate], the values for the half-inhibitory concentration (IC50) at JAK2 and on JAK1 were 318 nM and 11 nM, respectively.
`N#CCC1(n2cc(C(N)=O)c(Nc3ccccc3)n2)CCN(Cc2ccc(C(F)(F)F)cc2)CC1` [Example 21-19, 1-{4-(cyanomethyl)-1-[4-(trifluoromethyl)benzyl]piperidin-4-yl}-3-(phenylamino)-1H-pyrazole-4-carboxamide]: the IC50 amounted to 460 nM at JAK2 and 35 nM on JAK1.
Regarding `N#CCC1(n2cc(C(N)=O)c(Nc3ccccc3)n2)CCN(C(=O)c2cccnc2)CC1` [Example 34-8, 1-[4-(cyanomethyl)-1-(pyridin-3-ylcarbonyl)piperidin-4-yl]-3-(phenylamino)-1H-pyrazole-4-carboxamide], the IC50 against JAK2 was found to be 191 nM; at JAK1, 14 nM.
Taken in the same sequence, the figures for `N#CCC1(n2cc(C(N)=O)c(Nc3ccnc(F)c3)n2)CCN(C(=O)C2CC(F)(F)C2)CC1` [Example 34-53, 1-{4-(cyanomethyl)-1-[(3,3-difluorocyclobutyl)carbonyl]piperidin-4-yl}-3-[(2-fluoropyridin-4-yl)amino]-1H-pyrazole-4-carboxamide] were 15 nM and 0.3 nM.
`N#CCC1(n2cc(C(N)=O)c(Nc3ccnc(F)c3)n2)CCN(Cc2ccn[nH]2)CC1` [Example 22-13, 1-[4-(cyanomethyl)-1-(1H-pyrazol-5-ylmethyl)piperidin-4-yl]-3-[(2-fluoropyridin-4-yl)amino]-1H-pyrazole-4-carboxamide]: the IC50 amounted to 39 nM against JAK2 and 3 nM on JAK1.
Regarding `N#CCC1(n2cc(C(N)=O)c(Nc3ccccc3)n2)CCN(S(=O)(=O)c2ccccc2)CC1` [Example 37-6, 1-[4-(cyanomethyl)-1-(phenylsulfonyl)piperidin-4-yl]-3-(phenylamino)-1H-pyrazole-4-carboxamide], the IC50 at JAK2 was determined as 1 nM; at JAK1 it was 0.3 nM.
Taken in the same sequence, the figures for `N#CCC1(n2cc(C(N)=O)c(Nc3ccccc3)n2)CCN(C(=O)c2ccncc2)CC1` [Example 34-10, 1-[4-(cyanomethyl)-1-(pyridin-4-ylcarbonyl)piperidin-4-yl]-3-(phenylamino)-1H-pyrazole-4-carboxamide] were 318 nM and 20 nM.
Taken in the same sequence, the figures for `N#CC[C@]1(n2cc(C(N)=O)c(Nc3ccnc(F)c3)n2)CC[C@H](NCc2ccc(F)cc2F)CC1` [Example 41-1, Trans 1-(1-(cyanomethyl)-4-((2,4-difluorobenzyl)amino)cyclohexyl)-3-((2-fluoropyridin-4-yl)amino)-1H-pyrazole-4-carboxamide] were 218 nM and 8 nM.
Consider `N#CCC1(n2cc(C(N)=O)c(Nc3ccccc3)n2)CN(C(=O)OCc2cccnc2)C1` [Example 30-65, pyridin-3-ylmethyl 3-[4-carbamoyl-3-(phenylamino)-1H-pyrazol-1-yl]-3-(cyanomethyl)azetidine-1-carboxylate], for which the IC50 came to 271 nM against JAK2 and 12 nM on JAK1.
On to `N#CCC1(n2cc(C(N)=O)c(Nc3ccc(F)cc3)n2)CCN(Cc2ccco2)CC1` [Example 22-54, 1-[4-(cyanomethyl)-1-(furan-2-ylmethyl)piperidin-4-yl]-3-[(4-fluorophenyl)amino]-1H-pyrazole-4-carboxamide], for which the IC50 worked out at 28 nM against JAK2 and 1 nM on JAK1.
Taken in the same sequence, the figures for `N#CCC1(n2cc(C(N)=O)c(Nc3ccnc(F)c3)n2)CCC(NCC(F)F)CC1` (stereo not drawn) [Example 40-87, Cis or trans 1-{1-(cyanomethyl)-4-[(2,2-difluoroethyl)amino]cyclohexyl}-3-[(2-fluoropyridin-4-yl)amino]-1H-pyrazole-4-carboxamide] were 524 nM and 13 nM.
Regarding `N#CCC1(n2cc(C(N)=O)c(Nc3ccc(F)cc3)n2)CCN(Cc2cccnn2)CC1` [Example 22-47, 1-[4-(cyanomethyl)-1-(pyridazin-3-ylmethyl)piperidin-4-yl]-3-[(4-fluorophenyl)amino]-1H-pyrazole-4-carboxamide], the values for the IC50 on JAK2 and at JAK1 were 100 nM and 6 nM, respectively.
Consider `N#CCC1(n2cc(C(N)=O)c(Nc3ccccc3)n2)CCN(S(=O)(=O)Cc2ccccc2)CC1` [Example 37-8, 1-[1-(benzylsulfonyl)-4-(cyanomethyl)piperidin-4-yl]-3-(phenylamino)-1H-pyrazole-4-carboxamide], for which the IC50 against JAK2 amounted to 35 nM; on JAK1, 15 nM.
For the molecule `CNC(=O)c1cn(C2(CC#N)CCN(C(=O)OC(C)(C)C)CC2)nc1Nc1ccccc1` [Example 1, tert-Butyl 4-(cyanomethyl)-4-[4-(methylcarbamoyl)-3-(phenylamino)-1H-pyrazol-1-yl]piperidine-1-carboxylate], the IC50 against JAK2 stood at 1480 nM; at JAK1 it was 67 nM.
On to `CC(C)[C@H](O)C(=O)N1CCC(CC#N)(n2cc(C(N)=O)c(Nc3ccnc(F)c3)n2)CC1` [Example 34-47, 1-{4-(cyanomethyl)-1-[(2S)-2-hydroxy-3-methylbutanoyl]piperidin-4-yl}-3-[(2-fluoropyridin-4-yl)amino]-1H-pyrazole-4-carboxamide], for which the results for the IC50 against JAK2 and on JAK1 were 79 nM and 2 nM, respectively.
As to `COCCOC(=O)N1CCC(CC#N)(n2cc(C(N)=O)c(Nc3ccccc3)n2)CC1` [Example 30-35, 2-methoxyethyl 4-[4-carbamoyl-3-(phenylamino)-1H-pyrazol-1-yl]-4-(cyanomethyl)piperidine-1-carboxylate], the IC50 at JAK2 turned out to be 71 nM; on JAK1 it was 4 nM.
